What all share (details): human
The subject of data set [1] is Hepatotoxicity. Put plainly: FDA HLAED, alkaline phosphatase increase.
The subject of data set [2] is Hepatotoxicity. Put plainly: FDA HLAED, liver enzyme composite activity.
Data set [3] relates to Hepatotoxicity. Put plainly: FDA HLAED, serum glutamic pyruvic transaminase (SGPT) increase.
Data set [4] has as its system Hepatotoxicity. The data set can be described thus: FDA HLAED, gamma-glutamyl transferase (GGT) increase.
In data set [5] the test system is Hepatotoxicity. The data set can be described thus: FDA HLAED, lactate dehydrogenase (LDH) increase.
The test system of data set [6] is Hepatotoxicity. Put plainly: FDA HLAED, serum glutamic oxaloacetic transaminase (SGOT) increase.
Wherever GGT Increase - Index Value is given: reference of the scale not given here.
Wherever LDH Increase - Index Value is given: reference of the scale not given here.

For `CC(=O)CCCCn1c(=O)c2c(ncn2C)n(C)c1=O` [PENTOXIFYLLINE], in the data set on Hepatotoxicity [1], the “Alkaline Phosphatase Increase - Activity Score” value is on record as “Inactive”, the “Alkaline Phosphatase Increase - Index Value” turned out to be 1 and the “Alkaline Phosphatase Increase - Number of Reports” value is on record as “>= 4”. Further, in the data set on Hepatotoxicity [2], the “Composite Activity - Active” value was found to be 0, the “Composite Activity - Marginal” value is recorded as 0 and the “Composite Activity - Score” value is “Inactive”. Besides, in the data set on Hepatotoxicity [3], the “SGPT Increase - Activity Score” value is “Inactive”, the “SGPT Increase - Index Value” is reported as 0.3 and the “SGPT Increase - Number of Reports” value is given as less than 4. Also, in the data set on Hepatotoxicity [4], the “GGT Increase - Activity Score” value is “Inactive”, the “GGT Increase - Index Value” is 0 and the “GGT Increase - Number of Reports” value was less than 4. In the data set with Hepatotoxicity [5], the “LDH Increase - Activity Score” value is reported as “Inactive”, the “LDH Increase - Index Value” was 0.6 and the “LDH Increase - Number of Reports” value is “>= 4”. For the same compound, in the data set on Hepatotoxicity [6], the “SGOT Increase - Activity Score” value is “Inactive”, the “SGOT Increase - Index Value” is 0.9 and the “SGOT Increase - Number of Reports” value is listed as “>= 4”.
In the case of `Cc1nnc2n1-c1ccc(Cl)cc1C(c1ccccc1)=NC2` [ALPRAZOLAM], in the data set with Hepatotoxicity [1], the “Alkaline Phosphatase Increase - Activity Score” value is reported as “Inactive”, the “Alkaline Phosphatase Increase - Index Value” is given as 0.4 and the “Alkaline Phosphatase Increase - Number of Reports” value was “>= 4”. Besides, in the data set on Hepatotoxicity [2], the “Composite Activity - Active” value is reported as 0, the “Composite Activity - Marginal” value is recorded as 0 and the “Composite Activity - Score” value is “Inactive”. In the data set with Hepatotoxicity [3], the “SGPT Increase - Activity Score” value is on record as “Inactive”, the “SGPT Increase - Index Value” is 0.9 and the “SGPT Increase - Number of Reports” value is given as “>= 4”. Moreover, in the data set on Hepatotoxicity [4], the “GGT Increase - Activity Score” value is listed as “Inactive”, the “GGT Increase - Index Value” came to 0 and the “GGT Increase - Number of Reports” value is less than 4. In addition, in the data set on Hepatotoxicity [5], the “LDH Increase - Activity Score” value is reported as “Inactive”, the “LDH Increase - Index Value” was 0.5 and the “LDH Increase - Number of Reports” value is “>= 4”. For the same compound, in the data set on Hepatotoxicity [6], the “SGOT Increase - Activity Score” value is given as “Inactive”, the “SGOT Increase - Index Value” is on record as 0.7 and the “SGOT Increase - Number of Reports” value is recorded as “>= 4”.
`CC[C@@H]1C(=O)OC[C@@H]1Cc1cncn1C` [PILOCARPINE]: in the data set on Hepatotoxicity [1], the “Alkaline Phosphatase Increase - Activity Score” value was “Inactive”, the “Alkaline Phosphatase Increase - Index Value” was 0 and the “Alkaline Phosphatase Increase - Number of Reports” value was less than 4. Moreover, in the data set with Hepatotoxicity [2], the “Composite Activity - Active” value was determined as 0, the “Composite Activity - Marginal” value amounted to 0 and the “Composite Activity - Score” value is on record as “Inactive”. Moreover, in the data set on Hepatotoxicity [3], the “SGPT Increase - Activity Score” value is given as “Inactive”, the “SGPT Increase - Index Value” was found to be 4.6 and the “SGPT Increase - Number of Reports” value is less than 4. In the data set with Hepatotoxicity [4], the “GGT Increase - Activity Score” value is listed as “Inactive”, the “GGT Increase - Index Value” was 0 and the “GGT Increase - Number of Reports” value is on record as less than 4. Also, in the data set with Hepatotoxicity [5], the “LDH Increase - Activity Score” value was “Inactive”, the “LDH Increase - Index Value” amounted to 0 and the “LDH Increase - Number of Reports” value is less than 4. Besides, in the data set with Hepatotoxicity [6], the “SGOT Increase - Activity Score” value was “Inactive”, the “SGOT Increase - Index Value” worked out at 4.6 and the “SGOT Increase - Number of Reports” value is listed as less than 4.
Turning to `CC1(C)O[C@@H]2[C@@H](CO[C@@]3(COS(N)(=O)=O)OC(C)(C)O[C@@H]23)O1` [TOPIRAMATE], in the data set on Hepatotoxicity [1], the “Alkaline Phosphatase Increase - Activity Score” value was “Inactive”, the “Alkaline Phosphatase Increase - Index Value” was determined as 3.5 and the “Alkaline Phosphatase Increase - Number of Reports” value is less than 4. In the data set with Hepatotoxicity [2], the “Composite Activity - Active” value came to 0, the “Composite Activity - Marginal” value came out at 0 and the “Composite Activity - Score” value is listed as “Inactive”. Also, in the data set with Hepatotoxicity [3], the “SGPT Increase - Activity Score” value is “Inactive”, the “SGPT Increase - Index Value” was found to be 0 and the “SGPT Increase - Number of Reports” value was less than 4. In the data set on Hepatotoxicity [4], the “GGT Increase - Activity Score” value is recorded as “Inactive”, the “GGT Increase - Index Value” is listed as 0 and the “GGT Increase - Number of Reports” value is reported as less than 4. Moreover, in the data set on Hepatotoxicity [5], the “LDH Increase - Activity Score” value is on record as “Inactive”, the “LDH Increase - Index Value” was determined as 0 and the “LDH Increase - Number of Reports” value is less than 4. Further, in the data set on Hepatotoxicity [6], the “SGOT Increase - Activity Score” value is reported as “Inactive”, the “SGOT Increase - Index Value” was 0 and the “SGOT Increase - Number of Reports” value is less than 4.
`CCn1nc(C(=O)O)c(=O)c2cc3c(cc21)OCO3` [CINOXACIN]: in the data set with Hepatotoxicity [1], the “Alkaline Phosphatase Increase - Activity Score” value was “Inactive”, the “Alkaline Phosphatase Increase - Index Value” was found to be 0 and the “Alkaline Phosphatase Increase - Number of Reports” value was less than 4. Further, in the data set on Hepatotoxicity [2], the “Composite Activity - Active” value stood at 2, the “Composite Activity - Marginal” value is 0 and the “Composite Activity - Score” value is reported as “Active”. Moreover, in the data set on Hepatotoxicity [3], the “SGPT Increase - Activity Score” value is listed as “Active”, the “SGPT Increase - Index Value” is given as 15.1 and the “SGPT Increase - Number of Reports” value is given as “>= 4”. Besides, in the data set with Hepatotoxicity [4], the “GGT Increase - Activity Score” value is “Inactive”, the “GGT Increase - Index Value” is reported as 0 and the “GGT Increase - Number of Reports” value was less than 4. Besides, in the data set on Hepatotoxicity [5], the “LDH Increase - Activity Score” value is listed as “Inactive”, the “LDH Increase - Index Value” was 0 and the “LDH Increase - Number of Reports” value is less than 4. Further, in the data set with Hepatotoxicity [6], the “SGOT Increase - Activity Score” value is given as “Active”, the “SGOT Increase - Index Value” is listed as 16.9 and the “SGOT Increase - Number of Reports” value was “>= 4”.
In the case of `O=C(NCC1CCCCN1)c1cc(OCC(F)(F)F)ccc1OCC(F)(F)F` (configuration not stated) [FLECAINIDE], in the data set on Hepatotoxicity [1], the “Alkaline Phosphatase Increase - Activity Score” value is listed as “Active”, the “Alkaline Phosphatase Increase - Index Value” is reported as 8.3 and the “Alkaline Phosphatase Increase - Number of Reports” value was “>= 4”. In the data set on Hepatotoxicity [2], the “Composite Activity - Active” value came out at 3, the “Composite Activity - Marginal” value amounted to 1 and the “Composite Activity - Score” value was “Active”. In the data set on Hepatotoxicity [3], the “SGPT Increase - Activity Score” value is “Active”, the “SGPT Increase - Index Value” is 8.3 and the “SGPT Increase - Number of Reports” value was “>= 4”. In addition, in the data set on Hepatotoxicity [4], the “GGT Increase - Activity Score” value is given as “Inactive”, the “GGT Increase - Index Value” is reported as 0 and the “GGT Increase - Number of Reports” value was less than 4. In the data set with Hepatotoxicity [5], the “LDH Increase - Activity Score” value is on record as “Marginally Active”, the “LDH Increase - Index Value” is recorded as 3.2 and the “LDH Increase - Number of Reports” value is reported as “>= 4”. In the data set on Hepatotoxicity [6], the “SGOT Increase - Activity Score” value is “Active”, the “SGOT Increase - Index Value” is 9.6 and the “SGOT Increase - Number of Reports” value is reported as “>= 4”.
As for `CCc1cccc2c3c([nH]c12)C(CC)(CC(=O)O)OCC3` (configuration not stated) [ETODOLAC], in the data set with Hepatotoxicity [1], the “Alkaline Phosphatase Increase - Activity Score” value is on record as “Inactive”, the “Alkaline Phosphatase Increase - Index Value” was determined as 0.8 and the “Alkaline Phosphatase Increase - Number of Reports” value is recorded as “>= 4”. In the data set on Hepatotoxicity [2], the “Composite Activity - Active” value worked out at 0, the “Composite Activity - Marginal” value was determined as 0 and the “Composite Activity - Score” value is given as “Inactive”. Also, in the data set with Hepatotoxicity [3], the “SGPT Increase - Activity Score” value was “Inactive”, the “SGPT Increase - Index Value” is on record as 1.4 and the “SGPT Increase - Number of Reports” value is listed as “>= 4”. For the same compound, in the data set with Hepatotoxicity [4], the “GGT Increase - Activity Score” value is “Inactive”, the “GGT Increase - Index Value” is recorded as 0.8 and the “GGT Increase - Number of Reports” value is given as “>= 4”. Besides, in the data set on Hepatotoxicity [5], the “LDH Increase - Activity Score” value is “Inactive”, the “LDH Increase - Index Value” was 0.6 and the “LDH Increase - Number of Reports” value is “>= 4”. In the data set with Hepatotoxicity [6], the “SGOT Increase - Activity Score” value is given as “Inactive”, the “SGOT Increase - Index Value” amounted to 1.1 and the “SGOT Increase - Number of Reports” value is listed as “>= 4”.
Take `CN(C)CCCN1c2ccccc2CCc2ccc(Cl)cc21` [CLOMIPRAMINE]: in the data set with Hepatotoxicity [1], the “Alkaline Phosphatase Increase - Activity Score” value is recorded as “Inactive”, the “Alkaline Phosphatase Increase - Index Value” was found to be 0 and the “Alkaline Phosphatase Increase - Number of Reports” value is less than 4. Besides, in the data set with Hepatotoxicity [2], the “Composite Activity - Active” value is 0, the “Composite Activity - Marginal” value worked out at 0 and the “Composite Activity - Score” value is “Inactive”. For the same compound, in the data set with Hepatotoxicity [3], the “SGPT Increase - Activity Score” value was “Inactive”, the “SGPT Increase - Index Value” amounted to 0 and the “SGPT Increase - Number of Reports” value is recorded as less than 4. Further, in the data set on Hepatotoxicity [4], the “GGT Increase - Activity Score” value is given as “Inactive”, the “GGT Increase - Index Value” is listed as 0 and the “GGT Increase - Number of Reports” value is less than 4. In the data set on Hepatotoxicity [5], the “LDH Increase - Activity Score” value is “Inactive”, the “LDH Increase - Index Value” was found to be 0 and the “LDH Increase - Number of Reports” value is recorded as less than 4. Besides, in the data set on Hepatotoxicity [6], the “SGOT Increase - Activity Score” value is given as “Inactive”, the “SGOT Increase - Index Value” is 0 and the “SGOT Increase - Number of Reports” value is less than 4.
Take `C[C@H](CCC(=O)O)[C@H]1CC[C@H]2[C@@H]3[C@@H](O)C[C@@H]4C[C@H](O)CC[C@]4(C)[C@H]3CC[C@]12C` [URSODIOL]: in the data set on Hepatotoxicity [1], the “Alkaline Phosphatase Increase - Activity Score” value was “Active”, the “Alkaline Phosphatase Increase - Index Value” was 14.5 and the “Alkaline Phosphatase Increase - Number of Reports” value is reported as “>= 4”. Further, in the data set with Hepatotoxicity [2], the “Composite Activity - Active” value was determined as 2, the “Composite Activity - Marginal” value is on record as 0 and the “Composite Activity - Score” value is on record as “Active”. Further, in the data set on Hepatotoxicity [3], the “SGPT Increase - Activity Score” value was “Inactive”, the “SGPT Increase - Index Value” amounted to 4.8 and the “SGPT Increase - Number of Reports” value was less than 4. In addition, in the data set on Hepatotoxicity [4], the “GGT Increase - Activity Score” value is on record as “Inactive”, the “GGT Increase - Index Value” is listed as 4.8 and the “GGT Increase - Number of Reports” value is reported as less than 4. In the data set with Hepatotoxicity [5], the “LDH Increase - Activity Score” value is recorded as “Inactive”, the “LDH Increase - Index Value” stood at 4.8 and the “LDH Increase - Number of Reports” value is reported as less than 4. Moreover, in the data set on Hepatotoxicity [6], the “SGOT Increase - Activity Score” value was “Active”, the “SGOT Increase - Index Value” worked out at 9.7 and the “SGOT Increase - Number of Reports” value was “>= 4”.

(Values after ChEMBL document CHEMBL1697781, “Assessment of the health effects of chemicals in humans: II. Construction of an adverse effects database for QSAR modeling” (Curr Drug Discov Technol, 2004).)
